Literature values, collected in patent US20200306335A1, “A Dietary Composition Comprising Plant-Based Sources of Fatty Acids” (priority 2017, published 2020).

Key:
5 alpha-R Type 1 = biological target: T1, 5 alpha-R Type 1 (Homo sapiens, UniProt P18405); conditions: result in words, from a study cited in the background
T1 sequence (P18405 1-259): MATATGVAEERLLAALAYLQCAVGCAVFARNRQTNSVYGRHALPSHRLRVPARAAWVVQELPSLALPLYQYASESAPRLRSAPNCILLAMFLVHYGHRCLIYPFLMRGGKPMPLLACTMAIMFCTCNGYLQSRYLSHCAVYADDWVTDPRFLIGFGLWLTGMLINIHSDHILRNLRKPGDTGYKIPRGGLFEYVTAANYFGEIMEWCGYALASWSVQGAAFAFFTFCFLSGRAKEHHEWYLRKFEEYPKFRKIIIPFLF

5 alpha-R Type 2 = biological target: T2, 5 alpha-R Type 2 (Homo sapiens, UniProt P31213); conditions: result in words, from a study cited in the background
T2 sequence (P31213 1-254): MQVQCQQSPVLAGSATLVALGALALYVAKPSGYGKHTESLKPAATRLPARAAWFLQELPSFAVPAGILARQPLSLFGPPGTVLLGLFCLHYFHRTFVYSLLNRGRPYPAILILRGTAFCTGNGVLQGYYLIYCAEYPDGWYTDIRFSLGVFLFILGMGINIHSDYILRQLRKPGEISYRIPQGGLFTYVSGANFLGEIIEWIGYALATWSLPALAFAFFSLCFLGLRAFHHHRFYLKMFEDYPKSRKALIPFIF

inhibition of 5 alpha-R Type 1 (5 alpha-R Type 1) | inhibition of 5 alpha-R Type 2 (5 alpha-R Type 2) | SMILES
active inhibitor | active inhibitor | CCCCCCCCCCCC(=O)O [Lauric acid, lauric acid]
– | strongly inhibit | CCCCCCCCCCCCCC(=O)O [Myristic acid, myristic acid]
active inhibitors | little to no inhibitory activity | CCCCCCCC/C=C\CCCCCCCC(=O)O [Oleic, oleic acid]
active inhibitors | little to no inhibitory activity | CCCCC/C=C\C/C=C\CCCCCCCC(=O)O [linoleic acid]
